{"source": "patent US7078382B1", "about": "“Modulation of eNOS activity and therapeutic uses thereof” (Genentech, Inc., priority 1999, dated 2006)", "key": {"[1]": {"tested_on": "eNOS expression", "test": "eNOS expression by Western blot in ACE cells", "assay_type": "cell-based, bovine", "conditions": "for eNOS expression, time course: 0-5 days, VEGF alone or co-incubated with L-NAME (2 mM) or SNAP; for effect of signalling inhibitors on VEGF-induced eNOS expression: with 500 pM rhVEGF; for effect on VEGF-induced eNOS expression, KDR tyrosine kinase inhibitor: co-incubated with 500 pM rhVEGF; for eNOS expression with angiogenic factors / eNOS expression with KDR-specific VEGF variants: 500 pM; for eNOS expression with VEGF forms and receptor-selective variants: equal concentrations, two days", "experimental": "At the end of incubation, total cell lysates were prepared, and eNOS protein levels were determined by Western blot analysis.\nBovine adrenal cortex capillary endothelial cells (ACE) were prepared and maintained as previously described (Ferrara et.al., 1989 Biochem. Biophys. Res. Commun. 161:851–858). Briefly, cells were plated onto 6-well tissue culture plates (Costar) and grown in low glucose Dulbecco's modified Eagle's medium, supplemented with 2 mM […] (Life Technologies), 10% bovine calf serum (HyClone Lab., Inc.) and 100 μg/ml Penicillin/Streptomycin (Life Technologies). ACE cells were used between passages 4 and 8.\nMedium was changed every 24 hours.\nThe methods for cell lysis and Western blot (WB) have been described in Shen et al., 1998 J. Biol. Chem. 273:29979–29985. A monoclonal anti-eNOS antibody was used at 1:2500 to probe eNOS protein. A secondary antibody conjugated with horseradish peroxidase (1:2500) (Zymed) and an enhanced chemiluminescent kit (Amershal Pharmacia Biotech) were used to visualize the eNOS immunoreactive bands. Multiple exposures of films were obtained to determine the optical exposure time. The protein bands were scanned by a densitometer and the relative intensities were quantified using IMAGEQUANT® software (Molecular Dynamics).\n(§1) Confluent ACE cells were incubated with 500 pM rhVEGF. Total cell lysates were prepared as described above. Equal amounts of protein were denatured under reducing conditions and separated in a 10% Novex mini gel and transferred to PVDF membrane. eNOS protein signals were visualized by ECL and quantified using densitometry."}, "[2]": {"molecular_target": "Flt-1 receptor", "sequence (P17948 27-327 limits assumed)": "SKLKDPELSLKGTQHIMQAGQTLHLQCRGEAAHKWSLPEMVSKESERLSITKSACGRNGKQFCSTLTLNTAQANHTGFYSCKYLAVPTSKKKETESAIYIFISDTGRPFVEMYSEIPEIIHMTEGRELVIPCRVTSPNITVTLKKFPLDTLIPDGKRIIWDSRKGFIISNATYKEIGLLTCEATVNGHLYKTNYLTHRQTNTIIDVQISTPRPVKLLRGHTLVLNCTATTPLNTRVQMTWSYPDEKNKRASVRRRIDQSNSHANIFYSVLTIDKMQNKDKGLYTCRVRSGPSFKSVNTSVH", "test": "Flt-1 receptor binding ELISA (inhibition of biotinylated native VEGF binding to Flt-IgG)", "conditions": "first figure of the cell, read-out: Binding to FLT-1 Receptor, concentration at midpoint absorbance", "experimental": "Receptor binding assays were performed in 96-well immunoplates (Maxisorp, Nunc-Immunoplate, Nalge Nunc International, Rochester, N.Y.). Each well was coated with 100 μl of a solution containing 2 μg/ml of rabbit F(ab′)2 to human IgG Fc (Jackson ImmunoResearch, West Grove, Pa.) in 50 mM carbonate buffer at pH 9.6 and incubated at 4° C. overnight. The supernatant was then discarded, the wells were washed three times in washing buffer (0.05% Tween 20 in PBS), and the plate was blocked (150 μl per well) with block buffer (0.5% BSA, 0.01% thimerosal in PBS) at room temperature for one hour. The supernatant was discarded, and the wells were washed.\nThe wells were filled with 100 μl of a solution containing Flt-IgG (a chimeric Flt-human Fc molecule) at 50 ng/ml in assay buffer (0.5% BSA, 0.05% Tween 20 in PBS). The wells were incubated at room temperature for 1 hour and then washed three times in wash buffer (0.05% Tween 20 in PBS).\nAliquots of the mixture (100 μl) were added to the precoated microtiter wells and the plate was incubated for 2 hours at room temperature. […] Absorbance was read at 450 nm on a Vmax plate reader (Molecular Devices, Menlo Park, Calif.).\nTitration curves were fit with a four-parameter nonlinear regression curve-fitting program (KaleidaGraph, Synergy Software, Reading, Pa.)."}, "[3]": {"tested_on": "eNOS activity", "conditions": "ACE cells", "experimental": "as §1"}, "[4]": {"tested_on": "PAE/FLT-1 cells", "conditions": "500 pM rhVEGF, 2 days", "experimental": "Porcine aorta endothelial (PAE) cells, and receptor transfected PAE cells (PAE/KDR and PAE/FLT-1) were provided by Napoleone Ferrara (Genentech, Inc.) and cultured in Ham's F-12 medium containing 10% FBS (for PAE), or plus 250 μg/ml G480 (for PAE/KDR and PAE/FLT-1).\nPAE, PAE/KDR and PAE/Flt-1 cells were incubated with or without 500 pM rhVEGF for 2 days. eNOS was detected as described above for Example 1. Other materials and methods used in this study were as described above for Example 1."}, "[5]": {"tested_on": "PKC", "conditions": "ACE cells, rhVEGF 500 pM, 10 minutes", "experimental": "Cytosolic and membrane fractions were prepared to investigate the re-distribution or PKC isoforms. […] (See FIG. 5A)."}, "[6]": {"molecular_target": "T1, KDR receptor (Homo sapiens, UniProt P35968)", "T1 construct": "host or cells: CHO cells", "T1 sequence (P35968 20-1356)": "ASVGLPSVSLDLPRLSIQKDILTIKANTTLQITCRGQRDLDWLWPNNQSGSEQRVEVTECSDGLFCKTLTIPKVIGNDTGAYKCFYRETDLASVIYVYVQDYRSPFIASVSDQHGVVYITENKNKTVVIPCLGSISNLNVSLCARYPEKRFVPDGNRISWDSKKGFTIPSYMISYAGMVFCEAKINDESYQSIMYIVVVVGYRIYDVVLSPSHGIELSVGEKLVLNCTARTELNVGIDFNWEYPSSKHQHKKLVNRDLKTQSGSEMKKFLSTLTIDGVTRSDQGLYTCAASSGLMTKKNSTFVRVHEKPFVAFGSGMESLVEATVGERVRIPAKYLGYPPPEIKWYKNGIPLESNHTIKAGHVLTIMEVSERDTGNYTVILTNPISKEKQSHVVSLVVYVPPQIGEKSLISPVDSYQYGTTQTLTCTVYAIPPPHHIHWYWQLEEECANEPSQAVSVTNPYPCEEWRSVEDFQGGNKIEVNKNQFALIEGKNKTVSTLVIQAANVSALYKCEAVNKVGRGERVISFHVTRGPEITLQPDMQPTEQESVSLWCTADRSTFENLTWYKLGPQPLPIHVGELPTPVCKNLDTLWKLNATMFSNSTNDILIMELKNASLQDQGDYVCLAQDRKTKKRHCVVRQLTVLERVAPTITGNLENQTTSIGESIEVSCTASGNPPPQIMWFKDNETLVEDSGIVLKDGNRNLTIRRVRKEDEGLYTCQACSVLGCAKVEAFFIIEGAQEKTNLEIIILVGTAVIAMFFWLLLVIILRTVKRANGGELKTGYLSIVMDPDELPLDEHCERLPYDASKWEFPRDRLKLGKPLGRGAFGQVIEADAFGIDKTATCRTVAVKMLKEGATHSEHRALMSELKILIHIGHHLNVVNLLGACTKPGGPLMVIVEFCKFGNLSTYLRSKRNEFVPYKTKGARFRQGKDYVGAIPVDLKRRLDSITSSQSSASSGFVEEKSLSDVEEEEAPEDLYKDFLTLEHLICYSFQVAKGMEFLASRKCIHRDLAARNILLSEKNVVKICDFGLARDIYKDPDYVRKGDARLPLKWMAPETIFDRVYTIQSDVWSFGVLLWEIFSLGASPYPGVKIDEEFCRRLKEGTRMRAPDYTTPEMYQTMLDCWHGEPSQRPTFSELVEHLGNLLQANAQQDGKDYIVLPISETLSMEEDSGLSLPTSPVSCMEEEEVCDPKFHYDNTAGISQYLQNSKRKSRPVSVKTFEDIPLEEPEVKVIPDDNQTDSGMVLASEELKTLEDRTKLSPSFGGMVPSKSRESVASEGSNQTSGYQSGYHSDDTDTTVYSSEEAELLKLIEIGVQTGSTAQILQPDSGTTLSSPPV", "test": "RIA binding assay, KDR receptor"}, "[7]": {"molecular_target": "Flt-1 receptor (Homo sapiens, UniProt P17948)", "sequence (P17948 27-1338)": "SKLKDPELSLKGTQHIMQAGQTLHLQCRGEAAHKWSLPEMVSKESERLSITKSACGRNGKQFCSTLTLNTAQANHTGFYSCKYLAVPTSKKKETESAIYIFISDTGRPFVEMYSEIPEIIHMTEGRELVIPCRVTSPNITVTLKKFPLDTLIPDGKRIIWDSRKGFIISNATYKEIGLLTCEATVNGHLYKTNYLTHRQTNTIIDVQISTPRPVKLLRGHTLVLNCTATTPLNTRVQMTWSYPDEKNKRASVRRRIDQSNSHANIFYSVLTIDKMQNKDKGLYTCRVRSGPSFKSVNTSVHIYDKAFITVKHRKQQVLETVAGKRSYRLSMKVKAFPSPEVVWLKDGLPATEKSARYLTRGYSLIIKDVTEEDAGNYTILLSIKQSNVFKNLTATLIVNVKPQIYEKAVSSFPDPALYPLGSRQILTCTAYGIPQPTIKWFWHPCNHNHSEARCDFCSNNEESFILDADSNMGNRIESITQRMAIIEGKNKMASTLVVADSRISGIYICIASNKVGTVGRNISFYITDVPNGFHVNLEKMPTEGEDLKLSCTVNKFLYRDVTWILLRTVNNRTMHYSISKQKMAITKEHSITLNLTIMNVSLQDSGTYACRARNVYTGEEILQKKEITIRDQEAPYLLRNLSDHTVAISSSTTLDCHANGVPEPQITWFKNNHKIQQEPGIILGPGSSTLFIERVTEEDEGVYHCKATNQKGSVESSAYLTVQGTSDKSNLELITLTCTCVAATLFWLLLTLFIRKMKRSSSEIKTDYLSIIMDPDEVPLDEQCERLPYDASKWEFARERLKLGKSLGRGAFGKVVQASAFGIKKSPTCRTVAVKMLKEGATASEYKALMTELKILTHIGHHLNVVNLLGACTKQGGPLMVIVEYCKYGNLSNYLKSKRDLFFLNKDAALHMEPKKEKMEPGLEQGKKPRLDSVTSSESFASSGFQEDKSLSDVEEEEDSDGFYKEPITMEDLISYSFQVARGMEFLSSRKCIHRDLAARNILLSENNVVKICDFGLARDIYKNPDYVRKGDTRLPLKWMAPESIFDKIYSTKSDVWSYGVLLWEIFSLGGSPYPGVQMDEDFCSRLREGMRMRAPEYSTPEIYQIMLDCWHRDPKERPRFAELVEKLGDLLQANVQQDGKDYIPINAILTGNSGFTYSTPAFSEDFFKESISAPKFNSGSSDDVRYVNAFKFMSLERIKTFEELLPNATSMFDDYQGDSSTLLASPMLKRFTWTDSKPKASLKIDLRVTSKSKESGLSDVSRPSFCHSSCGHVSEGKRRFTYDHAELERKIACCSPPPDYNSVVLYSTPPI", "test": "RIA binding assay, FLT-1 receptor", "from_the_text": "The results are shown below in Table 6."}, "[8]": {"conditions": "coronary artery disease patients, intracoronary or intravenous infusion at 0.05 microgram/Kg body weight/minute", "from_the_text": "In one aspect, the invention provides methods for treating a NO associated disorder or condition such as hypertension, diabetes, thrombosis, angina, heart failure or atherosclerosis."}, "[9]": {"conditions": "angina patients, prolonged time point, early results", "from_the_text": "Luscher TF (1992) Br. J. Clin. Pharmacol. 34 Suppl. 1:29S–35S."}, "[10]": {"tested_on": "eNOS", "test": "Association of proteins with eNOS (immunoprecipitation, Western blot) in endothelial cells", "conditions": "VEGF 1-60 minutes"}}, "note": "pIC50: −log10 of the molar value. “Also recorded” adds a separate entry of the source."}
{"compound": "COC(=O)[C@@H](N)CCCNC(=N)N[N+](=O)[O-]", "note": "[L-NAME, L-N^G-Nitroarginine methyl ester, reference compound]", "values": [{"measurement": "eNOS expression, time course", "setting": "[1]", "value": "sustained increase"}]}
{"compound": "CCCCCCCCCCCCCC(=O)O[C@@H]1[C@@H](C)[C@@]2(O)[C@@H](C=C(CO)C[C@]3(O)C(=O)C(C)=C[C@@H]23)[C@@H]2C(C)(C)[C@]12OC(C)=O", "note": "[PMA, phorbol 12-myristate 13-acetate, reference compound]", "values": [{"measurement": "eNOS levels after PKC activation", "setting": "[1]", "value": "time-dependent (FIG. 5C) and dose-dependent (data not shown) increase in eNOS levels; also recorded: increased eNOS levels"}]}
{"compound": "Cc1ccc(-c2nn(C(C)(C)C)c3ncnc(N)c23)cc1", "note": "[PP1, reference compound]", "values": [{"measurement": "effect of signalling inhibitors on VEGF-induced eNOS expression", "setting": "[1]; 2 days", "value": "also blocked eNOS expression"}]}
{"compound": "CC(C)c1cc(/C=C(\\C#N)C(=O)NCCCc2ccccc2)cc(C(C)C)c1O", "note": "[SU1498, reference compound]", "values": [{"measurement": "effect on VEGF-induced eNOS up-regulation at high concentration", "setting": "[1]; 100 μM, 500 pM rhVEGF, 2 days", "value": "completely blocked"}, {"measurement": "effect on VEGF-induced eNOS expression, KDR tyrosine kinase inhibitor", "setting": "[1]; 2 days", "value": "dose-dependent prevention"}, {"measurement": "effect on VEGF-induced eNOS expression, KDR tyrosine kinase inhibitor", "setting": "[1]; 2 days, listed as SU-149 g", "value": "dose dependent inhibition"}]}
{"compound": "COC[C@H]1OC(=O)c2coc3c2[C@@]1(C)C1=C(C3=O)[C@@H]2CCC(=O)[C@@]2(C)C[C@H]1OC(C)=O", "note": "[Wortmannin, wortmannin, reference compound]", "values": [{"measurement": "effect of signalling inhibitors on VEGF-induced eNOS expression", "setting": "[1]; 2 days", "value": "no significant effect"}]}
{"compound": "O=c1c(-c2ccc(O)cc2)coc2cc(O)cc(O)c12", "note": "[genistein, reference compound]", "values": [{"measurement": "effect of signalling inhibitors on VEGF-induced eNOS expression", "setting": "[1]; 2 days", "value": "blocked VEGF-induced eNOS expression"}]}
{"compound": "CO[C@H]1[C@@H](OC)C[C@H](C)[C@@H](OC)C2=CC(=O)C=C(NC(=O)/C(C)=C/C=C\\[C@H](OC)[C@@H](OC(N)=O)/C(C)=C/[C@@H]1C)C2=O", "note": "[herbimycin A, reference compound]", "values": [{"measurement": "effect of signalling inhibitors on VEGF-induced eNOS expression", "setting": "[1]; 2 days", "value": "blocked VEGF-induced eNOS expression"}]}
{"compound": "EGF: recombinant human epidermal growth factor (NSDSECPLSHDGYCLHDGVCMYIEALDKYACNCVVGYIGERCQYRDLKWWELR; Epidermal growth factor; UniProt P01133 971-1023, looked up)", "values": [{"measurement": "eNOS expression with angiogenic factors", "setting": "[1]; 2 days", "value": "no significant effect"}]}
{"compound": "FGF: Recombinant human fibroblast growth factor (FGF) basic", "values": [{"measurement": "eNOS expression with angiogenic factors", "setting": "[1]; 2 days", "value": "no significant effect"}]}
{"compound": "HGF: heterodimeric form of recombinant human hepatocyte growth factor", "values": [{"measurement": "eNOS expression with angiogenic factors", "setting": "[1]; 2 days", "value": "capable of increasing eNOS expression"}]}
{"compound": "LK-VRB-2f: full length 1-165 VEGF variant, D63S/G65M/L66R", "values": [{"measurement": "eNOS expression with KDR-specific VEGF variants", "setting": "[1]; 2 days", "value": "markedly up-regulated eNOS expression"}]}
{"compound": "LK-VRB-2s*: VEGF (1-109) variant, D63S/G65M/L66R", "values": [{"measurement": "eNOS expression with KDR-specific VEGF variants", "setting": "[1]; 2 days", "value": "markedly up-regulated eNOS expression"}, {"measurement": "pIC50", "setting": "[2]", "value": "< 6.40"}]}
{"compound": "TGF-beta1: recombinant human transforming growth factor", "values": [{"measurement": "eNOS expression with angiogenic factors", "setting": "[1]; 2 days", "value": "reduced endogenous eNOS expression"}]}
{"compound": "VEGF", "values": [{"measurement": "eNOS expression, time course", "setting": "[1]", "value": "time-dependent but transient increase; also recorded: time-dependent increase in eNOS expression"}, {"measurement": "eNOS expression with KDR-specific VEGF variants", "setting": "[1]; 2 days", "value": "induced a similar degree of eNOS expression"}, {"measurement": "peak eNOS expression", "setting": "[1]; 2 days (48 hours) post exposure to 500 pM VEGF", "value": 5.5, "unit": "fold"}, {"measurement": "concentration giving maximal increase of eNOS", "setting": "[1]; dose-dependent up-regulation", "value": 500, "unit": "pM"}, {"measurement": "eNOS expression with VEGF forms and receptor-selective variants", "setting": "[1]; listed as VEGF165", "value": "induced a similar degree of eNOS expression; also recorded: induce eNOS up-regulation"}, {"measurement": "eNOS activity, acute treatment", "setting": "[3]; 0-60 min", "value": "time-dependent increase"}, {"measurement": "eNOS activity in treated cells versus untreated control cells", "setting": "[3]; 2 days VEGF", "value": "about 5 fold"}, {"measurement": "eNOS up-regulation in PAE/FLT-1 cells", "setting": "[4]", "value": "not in FLT-1 transfected PAE (PAE/FLT) cells; also recorded: not in FLT-1 containing PAE cells"}, {"measurement": "re-distribution of PKC isoforms from cytosolic to membrane fractions", "setting": "[5]", "value": "rapid re-distribution"}, {"measurement": "Relative Binding Affinity KDR Receptor", "setting": "[6]", "value": "1 (97 pM)"}, {"measurement": "Relative Binding Affinity FLT-1 Receptor", "setting": "[7]; relative to Native VEGF 165", "value": 1}, {"measurement": "pIC50", "setting": "[7]; value in brackets, read-out: Binding affinity FLT-1 Receptor", "value": 10.43}, {"measurement": "mean arterial pressure", "setting": "[8]", "value": "dose-rate dependent reduction in mean arterial pressure"}, {"measurement": "angina class, angina frequency, treadmill times versus placebo", "setting": "[9]", "value": "trends of improvement"}, {"measurement": "eNOS association levels of caveolin and PLC-γ", "setting": "[10]", "value": "significantly reduces; also recorded: induces dissociation"}, {"measurement": "levels of Hsp90 and Hsp70 associated with eNOS", "setting": "[10]", "value": "increase the levels of Hsp90 and Hsp70 associated with eNOS; also recorded: increase association"}]}
{"compound": "VEGF110: heparin binding domain-deficient variant made from VEGF165 by limited proteolytic digestion with plasmin", "values": [{"measurement": "eNOS expression with KDR-specific VEGF variants", "setting": "[1]; 2 days", "value": "induced a similar degree of eNOS expression"}, {"measurement": "eNOS expression with VEGF forms and receptor-selective variants", "setting": "[1]", "value": "induced a similar degree of eNOS expression; also recorded: induce eNOS up-regulation"}]}
